Laboratory results taken from patent publication US6391577B1, “Rapid electrochemical assay for antibiotic and cytotoxic drug susceptibility in microorganisms” (priority 1999, dated 2002).
≈ marks a conversion by molar mass, not a printed value. Where “and” joins values, the source holds several entries; their conditions need not be identical. Identical values can stand only once.

Tests used:
E. coli JM105 [1] = test: Chronocoulometric mediated respiration assay (ferricyanide); assay type: cell-based
Procedure: At this time, a platinum disk working electrode, Ag/AgCl reference electrode and a stainless steel auxiliary electrode are inserted, and a potential of +0.50 V is applied using a potentiostat. The measured current is integrated over time to produce a plot of total charge against time. The change in total charge is measured between 60 and 120 seconds after the potential is applied. The same procedures for E. coli growth, incubation with ferricyanide and antibiotic, and measurement were used in this Example as were used in Example 2. One antibiotic was studied for the effect of concentration, and this was chloramphenicol.

[2] = tested on: Clostridium sporogenes (ATCC 8075); conditions: see Bergey; cited from earlier work
[3] = tested on: Clostridium sporogenes (ATCC 8075); test: Mediated chronocoulometric respiration assay (ferricyanide + DCIP, anaerobic); assay type: cell-based; conditions: for Mediated Chronocoulometric Respiratory Activity Remaining, Percent: average of two measurements, 20 min + 20 min at 37 C under nitrogen
Procedure: This organism was chosen as a typical gram-positive, obligate anaerobe. Growth under anaerobic conditions was accomplished using a similar medium to that used for E. coli except that the concentrations of yeast extract and tryptone were doubled and the concentration of glucose was five-fold lower for the C. sporogenes growth. Assay conditions were the same as in Example 2, with the following exceptions. The incubation of 20 μL of the bacterial suspension with 130 μL of either the blank buffer or the chloramphenicol or lysozyme solution was done for 20 min at 37 C. Mediator solution (150 μL) containing 0.10 M ferricyanide and 10 μM 2,6-dichlorophenolindophenol (DCIP) was then added and the mixture was allowed to incubate for another 20 min at 37 C, giving final concentrations of 0.050 M ferricyanide and 5 μM DCIP, respectively. All manipulations were performed under a stream of nitrogen, to ensure the absence of oxygen, which is known to inhibit the growth of C. sporogenes. Measurement by chronocoulometry was performed in an identical manner as in Example 2.

E. coli JM105 [4] = test: Integrated current (charge) measurement after incubation with lysozyme or EDTA; assay type: cell-based; conditions: for Charge: single measurements, charge between 60 and 120 s
Procedure: E. coli JM105 was grown in the same manner as in Example 1. The assay procedure used to determine the effect of lysozyme on mediated electrochemical respiration rate was as follows. […] Ferricyanide solution (270 μL) was then added so that the final ferricyanide concentration was 50 mM. These solutions were incubated at 37 C for 10 min. Each sample was then analyzed electrochemically using a Pt working electrode, Ag/AgCl reference electrode and a stainless steel auxilliary electrode, with an applied potential of +0.500 V. The current measured at the working electrode was integrated over the time between 60 and 120 seconds. These experiments were repeated to determine average values of integrated current (charge). The effect of ethylenediaminetetraacetate (EDTA) on electrochemical response was investigated in a similar manner. […] The samples were incubated 10 min at 37 C, and the electrochemical analysis was done as described above for lysozyme.

Compound: O=C(N[C@H](CO)[C@H](O)c1ccc([N+](=O)[O-])cc1)C(Cl)Cl [Chloramphenicol]
- IC50 (E. coli JM105 [1]; Escherichia coli, JM105, from the concentration series of Table 5): 48 µM
- MIC (E. coli JM105 [1]; Escherichia coli, JM105, from the concentration series of Table 5, read-out: minimum inhibitory concentration): 0.48 µM (≈ 0.155 µg/mL)
- Mediated Chronocoulometric Respiration Activity Remaining, Percent (E. coli JM105 [1]; chloramphenicol 0.0048 μM): 95%
- Mediated Chronocoulometric Respiration Activity Remaining, Percent (E. coli JM105 [1]; chloramphenicol 0.048 μM): 102%
- Mediated Chronocoulometric Respiration Activity Remaining, Percent (E. coli JM105 [1]; chloramphenicol 0.48 μM): 66%
- Mediated Chronocoulometric Respiration Activity Remaining, Percent (E. coli JM105 [1]; chloramphenicol 4.8 μM): 58%
- Mediated Chronocoulometric Respiration Activity Remaining, Percent (E. coli JM105 [1]; chloramphenicol 48 μM): 52%
- Mediated Chronocoulometric Respiration Activity Remaining, Percent (E. coli JM105 [1]; chloramphenicol 480 μM): 35%
- Mediated Chronocoulometric Respiration Activity Remaining, Percent (E. coli JM105 [1]; chloramphenicol 4800 μM): 5%
- activity against growth [2]: active against the growth of this strain of Clostridium
- Mediated Chronocoulometric Respiratory Activity Remaining, Percent ([3]; final concentration 5.00 mM): 24%

Compound: O=C(O)CN(CCN(CC(=O)O)CC(=O)O)CC(=O)O [EDTA, Ethylenediaminetetraacetate]
- Charge, Average (E. coli JM105 [4]; 5 mM EDTA, blank 38 +/− 2): 45 +/− 2 μC
- Charge (E. coli JM105 [4]; 5 mM EDTA in 50 mM ferricyanide, 10 min at 37 C): 46.3 μC and 43.1 μC and 45.2 μC and 43.3 μC

Compound: Lysozyme: an enzyme that destroys cell walls and is used extensively in protein purification procedures
- Charge, Average (E. coli JM105 [4]; lysozyme solution 1.5 mg/mL, blank 32 +/− 3): 22 +/− 1 μC
- loss of activity (E. coli JM105 [4]; lysozyme, conditions of Example 3): 31%
- Charge (E. coli JM105 [4]; lysozyme solution 1.5 mg/mL, 15 min at 0 C, then 10 min at 37 C with 50 mM ferricyanide): 21.1 μC and 22.8 μC and 21.6 μC
- Mediated Chronocoulometric Respiratory Activity Remaining, Percent ([3]; final concentration 0.57 mg/mL): 80%
- loss of activity ([3]; lysozyme, conditions of Example 5): 20%
